Patent US12583852B2, “Heterocycle derivative” (JW PHARMACEUTICAL CORPORATION, priority 2018, dated 2026)

Tested on: human dermal papilla cells
Test: Promotion of proliferation of human dermal papilla cells (CellTiter-Glo Luminescent cell viability assay)
Format: cell-based
Conditions: human dermal papilla cells (ScienCell, 2499); drug 0 to 30 μM; 48 hours; CellTiter-Glo luminescence; compared to DMSO-treated control group
Procedure: The effect of promoting cell proliferation by the drug was analyzed using human dermal papilla cells (ScienCell, 2499). Human dermal papilla cells cultured using Mesenchymal Stem Cell Medium (ScienCell, 7501) medium were seeded at a density of 3×10^3 cells/well and in a volume of 100 μl in a 96-well plate, incubated overnight at 37° C. and 5% CO2, treated with the drug at different concentrations ranging from 0 to 30 μM in a volume of 100 μL, and incubated at 37° C. and 5% CO2 for 48 hours. CellTiter-Glo Luminescent cell viability assay was performed according to the manufacturer's protocol (Promega, G7573) to detect cell proliferation. Luminescence was measured using an Envision 2102 multilabeled reader (PerkinElmer) equipment, and the cell proliferation rate was analyzed by the activity of the drug-treated group compared to the DMSO-treated group (control group), which is a solvent of the drug.

| Compound | Maximum DP cell proliferation (%) |
| --- | --- |
| Cc1cc2c(c(Nc3nc4[nH]nc(N)c4cc3F)c1)CCC2 [Compound 27, 5-fluoro-N6-(6-methyl-2,3-dihydro-1H-inden-4-yl)-1H-pyrazolo[3,4-b]pyridine-3,6-diamine] | 6.8 |
| Nc1n[nH]c2nc(Nc3c4c(cc5c3CCC5)CCC4)c(F)cc12 [Compound 29, 5-fluoro-N6-(1,2,3,5,6,7-hexahydro-s-indacen-4-yl)-1H-pyrazolo[3,4-b]pyridine-3,6-diamine] | 4.6 |
| Cc1ccc2cccc(Nc3nc4[nH]nc(N)c4cc3F)c2c1 [Compound 31, 5-fluoro-N6-(7-methyl-1-naphthyl)-1H-pyrazolo[3,4-b]pyridine-3,6-diamine] | 3.2 |
| Cc1c(Nc2nc3[nH]nc(N)c3cc2F)cccc1N(C)C [Compound 33, N6-(3-(dimethylamino)-2-methylphenyl)-5-fluoro-1H-pyrazolo[3,4-b]pyridine-3,6-diamine] | 6.3 |
| Nc1n[nH]c2nc(CNc3cccc4c3CCC4)c(F)cc12 [Compound 34, 5-fluoro-6-[(indan-4-ylamino)methyl]-1H-pyrazolo[3,4-b]pyridin-3-amine] | 6.8 |
| Nc1n[nH]c2nc(Nc3cccc4ccccc34)ccc12 [Compound 35, N6-(naphthalen-1-yl)-1H-pyrazolo[3,4-b]pyridine-3,6-diamine] | 1.2 |
| Nc1n[nH]c2nc(Nc3cccc4c3CCCC4)ccc12 [Compound 38, N6-(5,6,7,8-tetrahydronaphthalen-1-yl)-1H-pyrazolo[3,4-b]pyridine-3,6-diamine] | 2.2 |
| Nc1n[nH]c2nc(Nc3cccc(C(F)F)c3F)cnc12 [Compound 39, N6-[3-(difluoromethyl)-2-fluoro-phenyl]-1H-pyrazolo[3,4-b]pyrazine-3,6-diamine] | 7.9 |
| Nc1n[nH]c2nc(Nc3cccc4c3CCC4)c(Cl)c(Cl)c12 [Compound 42, 4,5-dichloro-N6-indan-4-yl-1H-pyrazolo[3,4-b]pyridine-3,6-diamine] | 16 |
| Nc1n[nH]c2nc(Nc3cccc4c3CCCC4)cnc12 [Compound 45, N6-tetralin-5-yl-1H-pyrazolo[3,4-b]pyrazine-3,6-diamine] | 7 |
| Nc1n[nH]c2nc(Nc3cccc4c3CC=C4)c(F)cc12 [Compound 48, 5-fluoro-N6-(1H-inden-7-yl)-1H-pyrazolo[3,4-b]pyridine-3,6-diamine] | 11 |
| CC1(C)CCc2c(Nc3nc4[nH]nc(N)c4cc3F)cccc21 [Compound 51, N6-(1,1-dimethyl-2,3-dihydro-1H-inden-4-yl)-5-fluoro-1H-pyrazolo[3,4-b]pyridine-3,6-diamine] | 8.7 |
| CC1(C)Cc2cccc(Nc3nc4[nH]nc(N)c4cc3F)c2C1 [Compound 52, N6-(2,2-dimethyl-2,3-dihydro-1H-inden-4-yl)-5-fluoro-1H-pyrazolo[3,4-b]pyridine-3,6-diamine] | 11 |
| Nc1n[nH]c2nc(Nc3cccc4c3CNC4=O)c(F)cc12 [Compound 53, 4-((3-amino-5-fluoro-1H-pyrazolo[3,4-b]pyridin-6-yl)amino)isoindolin-1-one] | 2.4 |
| Nc1n[nH]c2nc(Nc3cccc4c3CC(=O)N4)c(F)cc12 [Compound 54, 4-((3-amino-5-fluoro-1H-pyrazolo[3,4-b]pyridin-6-yl)amino)indolin-2-one] | 4.4 |
| Nc1n[nH]c2nc(Nc3cc(O)cc4c3CCC4)c(F)cc12 [Compound 56, 7-[(3-amino-5-fluoro-1H-pyrazolo[3,4-b]pyridin-6-yl)amino]indan-5-ol] | 7.3 |
| Nc1n[nH]c2nc(Nc3c(O)ccc4c3CCC4)c(F)cc12 [Compound 57, 4-[(3-amino-5-fluoro-1H-pyrazolo[3,4-b]pyridin-6-yl)amino]indan-5-ol] | 3.1 |
| Cc1c(Nc2cccc3c2CCC3)nc2[nH]nc(N)c2c1C [Compound 58, N6-(2,3-dihydro-1H-inden-4-yl)-4,5-dimethyl-1H-pyrazolo[3,4-b]pyridine-3,6-diamine] | 13 |
| Nc1n[nH]c2nc(Nc3cccc(Cl)c3Cl)c(F)cc12 [Compound 59, N6-(2,3-dichlorophenyl)-5-fluoro-1H-pyrazolo[3,4-b]pyridine-3,6-diamine] | 15 |
| Nc1n[nH]c2nc(Nc3cccc4ncccc34)c(F)cc12 [Compound 60, 5-fluoro-N6-(quinolin-5-yl)-1H-pyrazolo[3,4-b]pyridine-3,6-diamine] | 6.1 |

| Compound | Maximum DP cell proliferation (%) |
| --- | --- |
| Nc1n[nH]c2nc(Nc3cccc(C(F)F)c3F)c(F)cc12 [Compound 61, N6-(3-(difluoromethyl)-2-fluorophenyl)-5-fluoro-1H-pyrazolo[3,4-b]pyridine-3,6-diamine] | 11 |
| Nc1n[nH]c2nc(Nc3cccc(F)c3C(F)(F)F)c(F)cc12 [Compound 62, 5-fluoro-N6-(3-fluoro-2-(trifluoromethyl)phenyl)-1H-pyrazolo[3,4-b]pyridine-3,6-diamine] | 6.2 |
| Nc1n[nH]c2nc(Nc3cccc(C(F)(F)F)c3F)c(F)cc12 [Compound 64, 5-fluoro-N6-(2-fluoro-3-(trifluoromethyl)phenyl)-1H-pyrazolo[3,4-b]pyridine-3,6-diamine] | 16 |
| Nc1n[nH]c2nc(Nc3cccc(C(F)(F)F)c3F)ccc12 [Compound 65, N6-[2-fluoro-3-(trifluoromethyl)phenyl]-1H-pyrazolo[3,4-b]pyridine-3,6-diamine] | 10 |
| Nc1n[nH]c2nc(Nc3cccc(C(F)(F)F)c3F)cnc12 [Compound 66, N6-[2-fluoro-3-(trifluoromethyl)phenyl]-1H-pyrazolo[3,4-b]pyrazine-3,6-diamine] | 25 |
| Cc1c(Cl)cccc1Nc1nc2[nH]nc(N)c2cc1F [Compound 67, N6-(3-chloro-2-methylphenyl)-5-fluoro-1H-pyrazolo[3,4-b]pyridine-3,6-diamine] | 13 |
| Nc1n[nH]c2nc(Nc3cc(C(F)(F)F)ccc3F)c(F)cc12 [Compound 68, 5-fluoro-N6-(2-fluoro-5-(trifluoromethyl)phenyl)-1H-pyrazolo[3,4-b]pyridine-3,6-diamine] | 4.5 |
| Nc1n[nH]c2nc(Nc3ccc(C(F)(F)F)c(F)c3)c(F)cc12 [Compound 72, 5-fluoro-N6-[3-fluoro-4-(trifluoromethyl)phenyl]-1H-pyrazolo[3,4-b]pyridine-3,6-diamine] | 6.8 |
| Nc1n[nH]c2nc(Nc3cc(F)cc(C(F)(F)F)c3F)c(F)cc12 [Compound 73, N6-[2,5-difluoro-3-(trifluoromethyl)phenyl]-5-fluoro-1H-pyrazolo[3,4-b]pyridine-3,6-diamine] | 14 |
| Nc1n[nH]c2nc(Nc3ccc(Cl)c(C(F)F)c3)c(F)cc12 [Compound 75, N6-(4-chloro-3-(difluoromethyl)phenyl)-5-fluoro-1H-pyrazolo[3,4-b]pyridine-3,6-diamine] | 3 |
| Cc1ccc(Cl)c(Nc2nc3[nH]nc(N)c3cc2F)c1F [Compound 76, N6-(6-chloro-2-fluoro-3-methylphenyl)-5-fluoro-1H-pyrazolo[3,4-b]pyridine-3,6-diamine] | 4 |
| Nc1n[nH]c2nc(Nc3cccc(C(F)(F)F)c3Cl)c(F)cc12 [Compound 77, N6-(2-chloro-3-(trifluoromethyl)phenyl)-5-fluoro-1H-pyrazolo[3,4-b]pyridine-3,6-diamine] | 15 |
| N#Cc1cccc(Nc2nc3[nH]nc(N)c3cc2F)c1F [Compound 79, 3-[(3-amino-5-fluoro-1H-pyrazolo[3,4-b]pyridin-6-yl)amino]-2-fluoro-benzonitrile] | 3.6 |
| Nc1n[nH]c2nc(Nc3ccc(F)c(C(F)(F)F)c3F)c(F)cc12 [Compound 80, N6-(2,4-difluoro-3-(trifluoromethyl)phenyl)-5-fluoro-1H-pyrazolo[3,4-b]pyridine-3,6-diamine] | 6 |
| Cc1c(F)cccc1Nc1nc2[nH]nc(N)c2cc1F [Compound 82, 5-fluoro-N6-(3-fluoro-2-methylphenyl)-1H-pyrazolo[3,4-b]pyridine-3,6-diamine] | 14 |
| Cc1nc(Nc2cccc3c2CCC3)nc2[nH]nc(N)c12 [Compound 84, N6-(2,3-dihydro-1H-inden-4-yl)-4-methyl-1H-pyrazolo[3,4-d]pyrimidine-3,6-diamine] | 7.4 |
| Nc1n[nH]c2nc(Nc3cccc4c3CCC4(F)F)c(F)cc12 [Compound 85, N6-(1,1-difluoro-2,3-dihydro-1H-inden-4-yl)-5-fluoro-1H-pyrazolo[3,4-b]pyridine-3,6-diamine] | 15 |
| CC(=O)n1nc(N)c2cc(F)c(Nc3cccc4c3CCC4)nc21 [Compound 88, 1-(3-amino-6-((2,3-dihydro-1H-inden-4-yl)amino)-5-fluoro-1H-pyrazolo[3,4-b]pyridin-1-yl)ethan-1-one] | 8 |
| O=C(Nc1n[nH]c2nc(Nc3cccc4c3CCC4)c(F)cc12)C1CCCC1 [Compound 89, N-(6-((2,3-dihydro-1H-inden-4-yl)amino)-5-fluoro-1H-pyrazolo[3,4-b]pyridin-3-yl)cyclopentanecarboxamide] | 0.4 |
